Measured values as given in patent US7544714B2, “Lipid-amino acid conjugates and methods of use” (University of Massachusetts, priority 2004, dated 2009).

Test system: 3T3 L1 fibroblasts
Assay: RT-PCR analysis of adipocyte specific transcripts as secondary test of adipocyte differentiation
Type: cell-based
Conditions: with 10 μg/ml insulin
Experimental: N-arachidonoyl-D-alanine is subjected to the Oil Red O assay, discussed in more detail supra. In the assay, 3T3 L1 fibroblasts are cultured in DMEM supplemented with 10% calf serum. Two days after confluence, cells are treated with 0.1% DMSO (vehicle), 20-100 μM N-arachidonoyl-D-alanine in vehicle, or 1 μM GW347845 (Cobb et al., J. Med. Chem., 41:5055-5069, 1998) in vehicle. Each of the three treatments is administered to the cells with 10 μg/ml of insulin. After seven days of treatment with GW347845 and 10-14 days of treatment with N-arachidonoyl-D-alanine, cells are fixed and stained with Oil Red O. Red staining indicates lipid droplets in the cytoplasm. RT-PCR analysis of expressed genes is performed as a secondary test of adipocyte differentiation. Messenger RNA from fibroblasts is harvested and RT-PCR is performed to amplify adipocyte specific transcripts, e.g., PPARγ2 and aP2, or the transcript of a ubiquitous housekeeping gene, e.g., GAPDH. PCR products are analyzed on 1% agarose gel and stained with ethidium bromide. […] Expression of the housekeeping gene GAPDH is assayed to ensure equal expression in all samples.

[1] = 20-100 μM, 10-14 days of treatment

COC(=O)c1ccccc1N[C@@H](Cc1ccc(OCCc2nc(-c3ccccc3)oc2C)cc1)C(=O)O [GW347845]
PPARγ2 transcript induction relative to vehicle-treated cells (RT-PCR) (1 μM, seven days of treatment): induced significantly | aP2 transcript induction relative to vehicle-treated cells (RT-PCR) (1 μM, seven days of treatment): induced significantly

CCCCC/C=C\C/C=C\C/C=C\C/C=C\CCCC(=O)N[C@H](C)C(=O)O [N-arachidonoyl-D-alanine]
PPARγ2 transcript induction relative to vehicle-treated cells (RT-PCR) [1]: induced significantly | aP2 transcript induction relative to vehicle-treated cells (RT-PCR) [1]: induced significantly
